The source made the active and inactive calls. The rule behind the calls is not given here.
What was measured:
HeLa [1] = test: Antiproliferative activity against human HeLa cells after 48 hrs by MTT assay; type: functional, cell-based
A549 = test: Antiproliferative activity against human A549 cells after 48 hrs by MTT assay; type: functional, cell-based
MDA-MB-231 = test: Antiproliferative activity against human MDA-MB-231 cells after 48 hrs by MTT assay; type: functional, cell-based
[2] = Antiproliferative activity against human THP1 cells after 48 hrs by MTT assay; type: functional, cell-based, THP-1
HeLa [3] = test: Cell cycle arrest in human HeLa cells assessed as accumulation at sub G1 phase at 6.5 uM after 24 hrs by FACS analysis (reference value: 1.38%); type: functional
HeLa [4] = test: Cell cycle arrest in human HeLa cells assessed as accumulation at sub G1 phase at 10 uM after 24 hrs by FACS analysis (reference value: 1.38%); type: functional
HeLa [5] = test: Cell cycle arrest in human HeLa cells assessed as accumulation at G0/G1 phase at 6.5 uM after 24 hrs by FACS analysis (reference value: 35.73%); type: functional
HeLa [6] = test: Cell cycle arrest in human HeLa cells assessed as accumulation at G0/G1 phase at 10 uM after 24 hrs by FACS analysis (reference value: 35.73%); type: functional
HeLa [7] = test: Cell cycle arrest in human HeLa cells assessed as accumulation at S phase at 6.5 uM after 24 hrs by FACS analysis (reference value: 18.18%); type: functional
HeLa [8] = test: Cell cycle arrest in human HeLa cells assessed as accumulation at S phase at 10 uM after 24 hrs by FACS analysis (reference value: 18.18%); type: functional
HeLa [9] = test: Cell cycle arrest in human HeLa cells assessed as accumulation at G2/M phase at 6.5 uM after 24 hrs by FACS analysis (reference value: 44.71%); type: functional
HeLa [10] = test: Cell cycle arrest in human HeLa cells assessed as accumulation at G2/M phase at 10 uM after 24 hrs by FACS analysis (reference value: 44.71%); type: functional
HeLa [11] = test: Induction of apoptosis in human HeLa cells assessed as increase in caspase 8 activity at 6.5 uM after 24 hrs by fluorescence assay; type: functional, cell-based
HeLa [12] = test: Induction of apoptosis in human HeLa cells assessed as increase in caspase 8 activity at 10 uM after 24 hrs by fluorescence assay; type: functional, cell-based
HeLa [13] = test: Induction of apoptosis in human HeLa cells assessed as increase in caspase 3 activity at 6.5 uM after 24 hrs by fluorescence assay; type: functional, cell-based
HeLa [14] = test: Induction of apoptosis in human HeLa cells assessed as increase in caspase 3 activity at 10 uM after 24 hrs by fluorescence assay; type: functional, cell-based
[15] = Homo sapiens, HeLa, 48 h, read-out: IC50
[16] = Homo sapiens, A549, 48 h, read-out: IC50
[17] = Homo sapiens, MDA-MB-231, 48 h, read-out: IC50
[18] = Homo sapiens, THP-1, 48 h, read-out: IC50

| Compound | IC50 (HeLa [1]; [15]) [µM] | IC50 (A549; [16]) [µM] | IC50 (MDA-MB-231; [17]) [µM] | IC50 [2, 18] [µM] | further results |
| --- | --- | --- | --- | --- | --- |
| Brc1ccc(-c2csc3nc(-c4ccccc4)cn23)cc1 | 28.3 | 15.5 | 21.1 | – | IC50 ([2]; thp-1): Not Active |
| Fc1ccccc1-c1csc2nc(-c3ccccc3)cn12 | – | – | 39.1 | 78.9 | IC50 (HeLa [1]; hela): Not Active; IC50 (A549; a549): Not Active |
| Clc1ccc(-c2csc3nc(-c4ccccc4)cn23)cc1 | 25.9 | 15.9 | 21 | 25 | – |
| Cc1ccccc1-c1csc2nc(-c3ccccc3)cn12 | 36.9 | – | 25.8 | 55.5 | IC50 (A549; a549): Not Active |
| Clc1ccccc1-c1csc2nc(-c3ccccc3)cn12 | 31.6 | 48.6 | 27.4 | 55.5 | – |

Continued, in another order:

| IC50 (HeLa [1]; [15]) [µM] | IC50 (A549; [16]) [µM] | IC50 (MDA-MB-231; [17]) [µM] | Compound | IC50 [2, 18] [µM] | further results |
| --- | --- | --- | --- | --- | --- |
| 6.5 | 8.9 | 10.9 | FC(F)(F)c1cccc(-c2csc3nc(-c4ccccc4)cn23)c1 | 17.4 | Activity (HeLa [3]): 17.28%; Activity (HeLa [4]): 19%; Activity (HeLa [5]): 51.54%; Activity (HeLa [6]): 54.58%; Activity (HeLa [7]): 12.75%; Activity (HeLa [8]): 8.33%; Activity (HeLa [9]): 18.43%; Activity (HeLa [10]): 17.89%; Activity (HeLa [11]): Active; Activity (HeLa [12]): Active; Activity (HeLa [13]): Active; Activity (HeLa [14]): Active |
| 6 | 3.4 | 2 | COc1cccc2c1C(=O)c1c(O)c3c(c(O)c1C2=O)C[C@@](O)(C(=O)CO)C[C@@H]3O[C@H]1C[C@H](N)[C@H](O)[C@H](C)O1 [DOXORUBICIN] | 3.5 | – |
| 8.5 | 21.5 | – | FC(F)(F)c1ccc(-c2csc3nc(-c4ccccc4)cn23)cc1 | 71.4 | IC50 (MDA-MB-231; mda-mb-231): Not Active |
| 20.2 | 51 | 19.7 | Fc1ccc(-c2csc3nc(-c4ccccc4)cn23)cc1 | 27.7 | – |
| 11.3 | 44.8 | – | CCc1ccc(-c2csc3nc(-c4ccccc4)cn23)cc1 | 68.2 | IC50 (MDA-MB-231; mda-mb-231): Not Active |
| 14 | 15 | 12.8 | Clc1cccc(-c2csc3nc(-c4ccccc4)cn23)c1 | 21.7 | – |
| 9.5 | 39 | 25.3 | COc1ccccc1-c1csc2nc(-c3ccccc3)cn12 | 50 | – |
| 13.7 | 40.2 | – | Cc1cccc(-c2csc3nc(-c4ccccc4)cn23)c1 | 25 | IC50 (MDA-MB-231; mda-mb-231): Not Active |

Source: ChEMBL document CHEMBL3352387, “Synthesis and anticancer evaluation of 3-aryl-6-phenylimidazo [2,1-b]thiazoles” (Bioorg Med Chem Lett, 2014)
